In patent US10899790B2, “Method for modifying T cell population” (OSAKA UNIVERSITY, priority 2016, dated 2021):

Test system: Healthy human-derived CD4+CD45RO+T cells
Test: Effect in vitro: CD62L and CD127 expression in cultured T cells by flow cytometry
Assay type: cell-based
Details: 20 μM; anti-CD3, anti-CD28, IL-2; vs DMSO control (FIG. 2)
Description: Healthy human-derived CD4^+CD45RO^+T cells (1×10^5) were cultured in the presence of anti-CD3 antibody (2 μg/ml), anti-CD28 antibody (2 μg/ml), IL-2 (20 IU/ml) and RDH10 inhibitors (Compound No. 16 (RDHI-032), Compound No. 17 (RDHI-033), and Compound No. 18 (RDHI-034)) (20 μM for each). In addition, DMSO was used as a control for the RDH10 inhibitor. After seven days […] resuspended in a fresh culture medium to which IL-2 was not added, and cultured for one more day. Thereafter, the expression of CD62L and CD127 in T cells was analyzed by flow cytometry. The culture solution used was X-VIVO15 to which AB serum was added to have a final concentration of 10%.

| SMILES | amplification of memory T cells (CD62L+CD127+T cells) |
| --- | --- |
| COC(=O)[C@@]1(C)CC[C@]2(C)CC[C@]3(C)C(=CC(=O)[C@@H]4[C@@]5(C)CCC(NC(=O)c6ccccc6C(=O)O)C(C)(C)[C@@H]5CC[C@]43C)[C@H]2C1 (stereo partly drawn) [Compound No. 3, 2-((4aR,6aR,6bS,8aS,11S,12aS,14aR,14bS)-11-(methoxycarbonyl)-4,4,6a,6b,8a,11,14b-heptamethyl-14-oxo-1,2,3,4,4a,5,6,6a,6b,7,8,8a,9,10,11,12,12a,14,14a,14b-icosahydropicen-3-ylcarbamoyl)benzoic acid] | tended to amplify memory cells |
| COC(=O)[C@@]1(C)CC[C@]2(C)CC[C@]3(C)C(=CC(=O)[C@@H]4[C@@]5(C)CCC(NC(=O)/C=C\C(=O)O)C(C)(C)[C@@H]5CC[C@]43C)[C@@H]2C1 (stereo partly drawn) [Compound No. 6, (Z)-4-((4aR,6aR,6bS,8aS,11S,12aR,14aR,14bS)-11-(methoxycarbonyl)-4,4,6a,6b,8a,11,14b-heptamethyl-14-oxo-1,2,3,4,4a,5,6,6a,6b,7,8,8a,9,10,11,12,12a,14,14a,14b-icosahydropicen-3-ylamino)-4-oxobut-2-enoic acid] | tended to amplify memory cells |
| COC(=O)[C@H](Cc1ccccc1)NC(=O)NC1CC[C@]2(C)[C@H]3C(=O)C=C4[C@H]5C[C@@](C)(C(=O)OC)CC[C@]5(C)CC[C@@]4(C)[C@]3(C)CC[C@H]2C1(C)C (stereo partly drawn) [Compound No. 11, (2S,4aS,6aS,6bR,8aR,12aS,12bR,14bS)-methyl 10-(3-((S)-1-methoxy-1-oxo-3-phenylpropan-2-yl)ureido)-2,4a,6a,6b,9,9,12a-heptamethyl-13-oxo-1,2,3,4,4a,5,6,6a,6b,7,8,8a,9,10,11,12,12a,12b,13,14b-icosahydropicene-2-carboxylate] | tended to amplify memory cells |
| COC(=O)[C@@]1(C)CC[C@]2(C)CC[C@]3(C)C(=CC(=O)[C@@H]4[C@@]5(C)CCC(NC(=O)Nc6ccccc6C(=O)O)C(C)(C)[C@@H]5CC[C@]43C)[C@H]2C1 (stereo partly drawn) [Compound No. 12, 2-(3-((4aR,6aR,6bS,8aS,11S,12aS,14aR,14bS)-11-(methoxycarbonyl)-4,4,6a,6b,8a,11,14b-heptamethyl-14-oxo-1,2,3,4,4a,5,6,6a,6b,7,8,8a,9,10,11,12,12a,14,14a,14b-icosahydropicen-3-yl)ureido)benzoic acid] | tended to amplify memory cells |
| CC1(C)C(N)CC[C@]2(C)[C@H]3C(=O)C=C4[C@H]5C[C@@](C)(C(N)=O)CC[C@]5(C)CC[C@@]4(C)[C@]3(C)CC[C@@H]12 (stereo partly drawn) [Compound No. 19, (2S,4aS,6aS,6bR,8aR,12aS,12bR,14bS)-10-amino-2,4a,6a,6b,9,9,12a-heptamethyl-13-oxo-1,2,3,4,4a,5,6,6a,6b,7,8,8a,9,10,11,12,12a,12b,13,14b-icosahydropicene-2-carboxamide] | tended to amplify memory cells |
| CC1(C)C(N)CC[C@]2(C)[C@H]3C(=O)C=C4[C@H]5C[C@@](C)(C(=O)O)CC[C@]5(C)CC[C@@]4(C)[C@]3(C)CC[C@@H]12.Cl (stereo partly drawn) [Compound No. 20, (2S,4aS,6aS,6bR,8aR,12aS,12bR,14bS)-10-amino-2,4a,6a,6b,9,9,12a-heptamethyl-13-oxo-1,2,3,4,4a,5,6,6a,6b,7,8,8a,9,10,11,12,12a,12b,13,14b-icosahydropicene-2-carboxylic acid hydrochloride] | tended to amplify memory cells |
| CC1(C)C(N)CC[C@]2(C)[C@H]3C(=O)C=C4[C@@H]5C[C@@](C)(C(=O)O)CC[C@]5(C)CC[C@@]4(C)[C@]3(C)CC[C@@H]12.Cl (stereo partly drawn) [Compound No. 21, (2S,4aS,6aS,6bR,8aR,12aS,12bR,14bR)-10-amino-2,4a,6a,6b,9,9,12a-heptamethyl-13-oxo-1,2,3,4,4a,5,6,6a,6b,7,8,8a,9,10,11,12,12a,12b,13,14b-icosahydropicene-2-carboxylic acid hydrochloride] | tended to amplify memory cells |
